# In patent US12534469B2 (CHILDREN'S HOSPITAL MEDICAL CENTER, priority 2020, dated 2026):
# Target: T1, FLT3 (Homo sapiens, UniProt P36888)
# T1 construct: using full-length kinases in the presence of cellular concentrations of ATP in live, uncompromised cells; assay by Reaction Biology; host or cells: HEK-293 (ATCC), transient transfection
# T1 sequence (P36888 27-993): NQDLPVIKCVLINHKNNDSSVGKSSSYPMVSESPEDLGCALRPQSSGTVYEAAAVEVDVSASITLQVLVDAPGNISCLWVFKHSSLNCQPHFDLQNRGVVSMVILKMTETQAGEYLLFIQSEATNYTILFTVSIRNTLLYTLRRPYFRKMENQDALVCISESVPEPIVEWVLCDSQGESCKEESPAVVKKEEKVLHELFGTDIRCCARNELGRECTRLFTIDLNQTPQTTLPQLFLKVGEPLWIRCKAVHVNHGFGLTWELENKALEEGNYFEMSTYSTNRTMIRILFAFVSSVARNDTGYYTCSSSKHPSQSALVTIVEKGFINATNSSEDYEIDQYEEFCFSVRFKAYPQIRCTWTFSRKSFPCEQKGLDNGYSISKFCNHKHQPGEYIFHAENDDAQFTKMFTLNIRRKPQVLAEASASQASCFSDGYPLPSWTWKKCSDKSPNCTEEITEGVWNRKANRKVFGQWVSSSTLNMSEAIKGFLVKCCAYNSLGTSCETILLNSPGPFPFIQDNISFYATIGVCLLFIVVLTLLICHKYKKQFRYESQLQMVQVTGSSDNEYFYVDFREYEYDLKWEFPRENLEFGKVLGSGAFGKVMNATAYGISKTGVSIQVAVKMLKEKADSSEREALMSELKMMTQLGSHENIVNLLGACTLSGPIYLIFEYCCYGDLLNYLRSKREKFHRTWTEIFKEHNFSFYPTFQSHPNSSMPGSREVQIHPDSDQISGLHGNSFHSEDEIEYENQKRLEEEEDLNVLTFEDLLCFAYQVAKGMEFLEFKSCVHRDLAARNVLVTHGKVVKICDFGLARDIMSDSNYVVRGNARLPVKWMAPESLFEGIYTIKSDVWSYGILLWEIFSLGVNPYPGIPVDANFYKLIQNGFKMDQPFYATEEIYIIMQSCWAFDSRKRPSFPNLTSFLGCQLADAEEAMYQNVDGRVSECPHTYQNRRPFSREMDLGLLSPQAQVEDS
# Experiment: Reaction Biology NanoBRET target engagement assay, FLT3
# Assay type: cell-based
# Conditions: transfected HEK-293 cells
# From the text: The NanoBRET assay measures kinase engagement in real time in the context of the intact cell. Unlike the previously described biochemical kinase assay methodologies in Examples 26-27, the NanoBRET assay measures the binding and activity characteristics under equilibrium conditions using full-length kinases in the presence of cellular concentrations of ATP in live, uncompromised cells. As such, the assay provides a more relevant assessment of kinase potency and selectivity that would be expected to be observed in the native cellular environment, where potency is often considerably lower than that observed in the isolated biochemical assays (Vasta, J. D. et al., (2018) Cell Chem. Biol. 25, 206-214). The assay uses a Kinase-NanoLuc® fusion vector expressing a kinase protein to which a luciferase tag has been added, a cell-permeant fluorescent NanoBRET™ tracer, a NanoLuc® substrate, and an extracellular NanoLuc® inhibitor. Upon expression of the luciferase-tagged kinase, cells will produce a strong BRET signal only in the presence of the NanoBRET™ tracer. The extracellular NanoLuc® inhibitor ensures that the BRET signal observed emanates only from live cells. Because the BRET signal has tight distance constraints, addition of the test compound will decrease the BRET signal if the compound competes with the NanoBRET™ tracer for binding to the kinase domain. Under the appropriate tracer conditions established by the manufacturer, quantitative intracellular affinity and relative potency can then be determined using Mass Action model equations.
# HEK-293 cells were purchased from ATCC. FuGENEHD Transfection Reagent, Kinase-NanoLucfusion plasmids, Transfection Carrier DNA, NanoBRETTracers and dilution buffer, NanoBRETNano-Glo Substrate, Extracellular NanoLucInhibitor were obtained from Promega.
# Assays were conducted following Promega assay protocol with some modifications. HEK-293 Cells were transiently transfected with Kinase-NanoLucFusion Vector DNA by FuGENEHD Transfection Reagent. Testing compounds were delivered into 384 well assay plate by Echo 550 (LabcyteInc, Sunnyvale, CA). Transfected cells were harvested and mixed with NanoBRETTracer Reagent and dispensed into 384 well plates and incubated at 37° C. in 5% CO2 cell culture incubator for 1 hour. The NanoBRETNano-Glo Substrate plus Extracellular NanoLucInhibitor Solution were added into the wells of the assay plate and incubated for 2-3 minutes at room temperature. The donor emission wavelength (460 nm) and acceptor emission wavelength (600 nm) were measured in the EnVisionplate reader. The BRET Ratios were calculated. BRET Ratio=[(Acceptor sample÷Donor sample)−(Acceptor no-tracer control÷Donor no-tracer control)]. The IC50 values of compounds were calculated with Prism GraphPad program.
# • 1). Cultivate HEK-293 cells (70-80% confluence) appropriately prior to assay. Trypsinize and collect HEK-293 cells. • 2). Prepare lipid: DNA complexes as follows: • a. Prepare a 10 μg/ml solution of DNA in Opti-MEM without serum that consists of the following ratios of carrier DNA and DNA encoding NanoLuc® fusion. 9.0 μg/mL of Transfection Carrier DNA, 1.0 μg/mL of NanoLuc fusion vector DNA and 1 mL of Opti-MEM without phenol red. Mix thoroughly. • b. Add 30 μl of FuGENE HD Transfection Reagent into each milliliter of DNA mixture to form lipid:DNA complex. • c. Mix by inversion 10 times. • d. Incubate at ambient temperature for 20 minutes to allow complexes to form. • 3). In a sterile, conical tube, mix 1 part of lipid:DNA complex with 20 parts of HEK-293 cells in suspension. Mix gently by inversion 5 times. • 4). Dispense cells+lipid:DNA complex into a sterile tissue culture dish and incubate for 22-24 hours. 2. Addition of Test Compounds (Dry Plate Shooting)
# Each test compound is delivered from the compound source plate to the wells of 384-well white NBS plate by Echo 550.
# • 1). […]
row,Structure (SMILES),IC50 [µM]
1,"COc1cc2ncc(-c3cccc(N[C@H]4CNCC[C@@H]4F)n3)n2nc1C1CC1 [Compound 102, 6-(6-cyclopropyl-7-methoxyimidazo[1,2-b]pyridazin-3-yl)-N-((3S,4S)-4-fluoropiperidin-3-yl)pyridin-2-amine]",0.004
2,"COc1cc2ncc(-c3nc(N[C@H]4CNCC[C@@H]4F)c(F)cc3F)n2nc1C(C)(C)O [Compound 128, 2-(3-(3,5-difluoro-6-(((3S,4S)-4-fluoropiperidin-3-yl)amino)pyridin-2-yl)-7-methoxyimidazo[1,2-b]pyridazin-6-yl)propan-2-ol]",0.102
3,"COc1cc2ncc(-c3cccc(N[C@H]4CNC[C@@H]4F)n3)n2nc1C1CC1 [Compound 96, 6-(6-cyclopropyl-7-methoxyimidazo[1,2-b]pyridazin-3-yl)-N-((3S,4S)-4-fluoropyrrolidin-3-yl)pyridin-2-amine]",0.018
4,"COc1cc2ncc(-c3nc(N[C@H]4CNCC[C@@H]4F)c(F)cc3F)n2nc1C1CC1 [Compound 108, 6-(6-cyclopropyl-7-methoxyimidazo[1,2-b]pyridazin-3-yl)-3,5-difluoro-N-((3S,4S)-4-fluoropiperidin-3-yl)pyridin-2-amine]",< 0.0005
5,"COc1cc2ncc(-c3nc(N[C@@H]4CCCNC4)c(F)cc3F)n2nc1C1CC1 [Compound 106, (R)-6-(6-cyclopropyl-7-methoxyimidazo[1,2-b]pyridazin-3-yl)-3,5-difluoro-N-(piperidin-3-yl)pyridin-2-amine]",< 0.0005
6,"COc1cc2ncc(-c3cccc(N[C@H]4CNC[C@@H]4F)n3)n2nc1C(C)(O)C(F)(F)F (single isomer, unassigned; fast-eluting) [Compound 133]",0.226
7,"F[C@H]1CNC[C@@H]1Nc1cccc(-c2cnc3ccc(-c4cnn5ccccc45)nn23)n1 [Compound 9, N-((3S,4S)-4-fluoropyrrolidin-3-yl)-6-(6-(pyrazolo[1,5-a]pyridin-3-yl)imidazo[1,2-b]pyridazin-3-yl)pyridin-2-amine]",0.367
8,"c1cc(N[C@@H]2CCCNC2)nc(-c2cnc3ccc(-c4cnn5ccccc45)nn23)c1 [Compound 19, (R)-N-(piperidin-3-yl)-6-(6-(pyrazolo[1,5-a]pyridin-3-yl)imidazo[1,2-b]pyridazin-3-yl)pyridin-2-amine]",0.142
9,"COc1cc2ncc(-c3nc(N[C@H]4CNC[C@@H]4F)c(F)cc3F)n2nc1C1CC1 [Compound 107, 6-(6-cyclopropyl-7-methoxyimidazo[1,2-b]pyridazin-3-yl)-3,5-difluoro-N-((3S,4S)-4-fluoropyrrolidin-3-yl)pyridin-2-amine]",4.89
10,"COc1cc2ncc(-c3nc(N[C@H]4CNC[C@@H]4F)c(F)cc3F)n2nc1C(C)(C)O [Compound 126, 2-(3-(3,5-difluoro-6-(((3S,4S)-4-fluoropyrrolidin-3-yl)amino)pyridin-2-yl)-7-methoxyimidazo[1,2-b]pyridazin-6-yl)propan-2-ol]",1.16
11,"COc1cc2ncc(-c3nc(N[C@@H]4CCCNC4)c(F)cc3F)n2nc1C(C)(C)O [Compound 127, (R)-2-(3-(3,5-difluoro-6-(piperidin-3-ylamino)pyridin-2-yl)-7-methoxyimidazo[1,2-b]pyridazin-6-yl)propan-2-ol]",0.196
12,"COc1cc2ncc(-c3cccc(N[C@H]4CNC[C@@H]4C(F)(F)F)n3)n2nc1C1CC1 [Compound 99, 6-(6-cyclopropyl-7-methoxyimidazo[1,2-b]pyridazin-3-yl)-N-((3R,4S)-4-(trifluoromethyl)pyrrolidin-3-yl)pyridin-2-amine]",0.003
